From US20060241114A1, “Derivatives of azasugars as anticancer agents” (priority 2003, published 2006)

Experiments:
[1] = test system: MCF7 (breast adenocarcinoma); experiment: In vitro growth inhibition screen (sulphorhodamine B), MCF7; format: cell-based, human; conditions: MCF7 cells, incubated for 48 hours, sulphorhodamine B dye; read-out: GI50 (concentration which inhibits the cell growth by 50%), MCF7 Breast adenocarcinoma
Experimental: (§1) Each agent was tested over a broad concentration range (ten-fold dilutions starting from ≧100 μM to 10 nM) against 6 human cancer cell lines which was comprised of different tumor types. These are DU145 (prostate carcinoma), HT29 (colorectal adenocarcinoma), LOX (melanoma), MCF7 (breast adenocarcinoma), MCF7ADR (adriamycin resistant breast adenocarcinoma), and U251 (human glioblastoma). A standard compound doxorubicin was tested in each assay as a positive control. The cells were maintained in growing condition in RPMI 1640 medium containing 10% fetal calf serum and incubated at 37° C. under 5% CO2 atmosphere. All cell lines were inoculated onto a series of standard 96-well microtitre plate on day zero, followed by twenty four-hour incubation in the absence of test compound. The inoculation densities in the screen were as per Monk et al., (1991) J. Natl. Cancer Inst., 83, 757-766. All NCEs were dissolved in DMSO and diluted further in culture medium. An aliquot of each dilution was added to the growing cells in 96 well plates and incubated for 48 hours. After incubation, the assay was terminated by adding 50 μL of trichloroacetic acid (TCA) and incubating at 4° C. for 30 min. The precipitated cells were washed and stained with sulphorhodamine B dye for 30 min and the excess dye was washed off with acetic acid. Adsorbed dye was solubilised in Tris base (alkaline pH) and quantitated by measuring the OD at […] in ELISA READER. GI50 (concentration which inhibits the cell growth by 50%) was calculated according to Boyd and Paull, (1995) Drug Dev. Res., 34, 91-109.

[2] = test system: DU145 (prostate carcinoma); experiment: In vitro growth inhibition screen (sulphorhodamine B), DU145; format: cell-based, human; conditions: DU145 cells, incubated for 48 hours, sulphorhodamine B dye; read-out: GI50 (concentration which inhibits the cell growth by 50%), DU145 Prostate carcinoma
Experimental: as §1

LOX (melanoma) = experiment: In vitro growth inhibition screen (sulphorhodamine B), LOX; format: cell-based, human; conditions: LOX cells, incubated for 48 hours, sulphorhodamine B dye; read-out: GI50 (concentration which inhibits the cell growth by 50%), LOX Melanoma
Experimental: as §1

[3] = test system: HT29 (colorectal adenocarcinoma); experiment: In vitro growth inhibition screen (sulphorhodamine B), HT29; format: cell-based, human; conditions: HT29 cells, incubated for 48 hours, sulphorhodamine B dye; read-out: GI50 (concentration which inhibits the cell growth by 50%), HT29 Colorectal adenocarcinoma
Experimental: as §1

[4] = test system: U251 (human glioblastoma); experiment: In vitro growth inhibition screen (sulphorhodamine B), U251; format: cell-based; conditions: U251 cells, incubated for 48 hours, sulphorhodamine B dye; read-out: GI50 (concentration which inhibits the cell growth by 50%), U251 Human glioblastoma astrocytoma
Experimental: as §1

[5] = test system: MCF7ADR (adriamycin resistant breast adenocarcinoma); experiment: In vitro growth inhibition screen (sulphorhodamine B), MCF7ADR; format: cell-based, human; conditions: MCF7ADR cells, incubated for 48 hours, sulphorhodamine B dye; read-out: GI50 (concentration which inhibits the cell growth by 50%), MCF7ADR Adriamycin Resistant Breast adenocarcinoma
Experimental: as §1

Row | Compound | GI50 [1] | GI50 [2] | GI50 (LOX (melanoma)) | GI50 [3] | GI50 [4] | GI50 [5]
1 | CCCN1C(=O)[C@H](OCc2ccccc2)[C@@H](OCc2ccccc2)[C@H](OCc2ccccc2)[C@H]1CNC(=O)Nc1c(Cl)cc(Cl)cc1Cl [Compound No. 17, 2,3,4-Tri-O-benzyl-6-N-{[2,4,6-trichlorophenyl]aminocarbonylamino}-N-propyl-D-gluco-δ-lactam] | > 528 µM | 82.2 µM | 170 µM | 213 µM | 206 µM | 348 µM
2 | CCCN1C(=O)[C@H](OCc2ccccc2)[C@@H](OCc2ccccc2)[C@H](OCc2ccccc2)[C@H]1CNC(=O)Nc1ccc(Cl)c(Cl)c1 [Compound No. 18, 2,3,4-Tri-O-benzyl-6-N-{[3,4-dichlorophenyl]aminocarbonylamino}-N-propyl-D-gluco-δ-lactam] | 2 µM | 2.5 µM | 2 µM | 2.2 µM | 2.6 µM | 2.9 µM
3 | CCCN1C(=O)C(OCc2ccccc2)C(OCc2ccccc2)C(OCc2ccccc2)C1CNC(=O)Nc1ccc(Cl)cc1Cl [Compound No. 19, 2,3,4-Tri-O-benzyl-6-N-{[2,4-dichlorophenyl]aminocarbonylamino}-N-propyl-D-gluco-δ-lactam] | > 592 µM | > 592 µM | 81.8 µM | > 592 µM | > 592 µM | > 592 µM
4 | CCCN1C(=O)C(OCc2ccccc2)C(OCc2ccccc2)C(OCc2ccccc2)C1CNC(=O)NC(C)C [Compound No. 20, 2,3,4-Tri-O-benzyl-6-N-{[isopropyl]aminocarbonylamino}-N-propyl-D-gluco-δ-lactam] | 4.1 µM | 15.3 µM | 5.9 µM | 2.6 µM | 3.3 µM | 5.5 µM
5 | CCCN1C(=O)[C@H](OCc2ccccc2)[C@@H](OCc2ccccc2)[C@H](OCc2ccccc2)[C@H]1CNC(=S)Nc1ccc(Cl)cc1 [Compound No. 21, 2,3,4-Tri-O-benzyl-6-N-{[4-chlorophenyl]aminothiocarbonylamino}-N-propyl-D-gluco-δ-lactam] | 2.4 µM | 6.5 µM | 2.9 µM | 2 µM | 3.6 µM | 3.4 µM
6 | CCCN1C(=O)[C@H](OCc2ccccc2)[C@@H](OCc2ccccc2)[C@H](OCc2ccccc2)[C@H]1CNC(=O)Nc1ccc(C(F)(F)F)cc1 [Compound No. 22, 2,3,4-Tri-O-benzyl-6-N-{[4-trifluoromethylphenyl]aminocarbonylamino}-N-propyl-D-gluco-δ-lactam] | 39.8 µM | 5.1 µM | 4.3 µM | 11.9 µM | 5.1 µM | 8.2 µM
7 | CCCN1C(=O)[C@H](OCc2ccccc2)[C@@H](OCc2ccccc2)[C@H](OCc2ccccc2)[C@H]1CNC(=O)NC12CC3CC(CC(C3)C1)C2 [Compound No. 23, 2,3,4-Tri-O-benzyl-6-N-{[1-adamantyl]aminocarbonylamino}-N-propyl-D-gluco-δ-lactam] | 5.6 µM | 50 µM | 35.7 µM | 28.7 µM | 4.2 µM | 26 µM
8 | CCCN1C(=O)[C@H](O)[C@@H](O)[C@H](O)[C@H]1CNC(=O)Nc1ccccc1 [Compound No. 24, N-Propyl-6-N-{[phenyl]aminocarbonylamino}-D-gluco-δ-lactam] | 157 µM | 296 µM | 169 µM | 213 µM | 231 µM | 262 µM
9 | CCCN1C(=O)[C@H](O)[C@@H](O)[C@H](O)[C@H]1CNC(=O)Nc1ccccc1C(F)(F)F [Compound No. 25, 6-N-{[2-Trifluoromethylphenyl]aminocarbonylamino}-N-propyl-D-gluco-δ-lactam] | 190 µM | 386 µM | 94.6 µM | 311 µM | 278 µM | 228 µM
